Measured values as given in ChEMBL document CHEMBL1201862, “PubChem BioAssay data set” (2004).
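How tested: cells in 96-well plates exposed to compound for 48 hours at five concentrations. GI50 marks 50% less growth.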 Active and inactive are the calls of the source. Rule as the data show it: active = GI50 up to about 1.1 µM and inactive = higher.

Assays:
Assay in all cases: growth of human tumour cells (NCI), 48 h
CCRF-CEM = test system: CCRF-CEM
DMS-114 = test system: DMS-114
HCT-116 = test system: HCT-116
HL-60 = test system: HL-60
KM12 = test system: KM12
LOX IMVI = test system: LOX IMVI
MOLT-4 = test system: MOLT-4
NCI-H226 = test system: NCI-H226
NCI-H460 = test system: NCI-H460
NCI-H522 = test system: NCI-H522
SK-MEL-28 = test system: SK-MEL-28
SK-OV-3 = test system: SK-OV-3
SNB-19 = test system: SNB-19
U-251 = test system: U-251
UO-31 = test system: UO-31
COLO 205 = test system: COLO 205

[O-][Cl+3]([O-])([O-])O.c1ccc(/N=c2\nc(N3CCOCC3)ss2)cc1
GI50 (CCRF-CEM): 0.016 µM (active)
GI50 (DMS-114): 14.6 µM (inactive)
GI50 (HCT-116): 14.6 µM (inactive)
GI50 (HL-60): 14.6 µM (inactive)
GI50 (KM12): 17.2 µM (inactive)
GI50 (LOX IMVI): 16 µM (inactive)
GI50 (MOLT-4): 12.3 µM (inactive)
GI50 (NCI-H226): 61.1 µM (inactive)
GI50 (NCI-H460): 17.6 µM (inactive)
GI50 (NCI-H522): 12.7 µM (inactive)
GI50 (SK-MEL-28): 17.2 µM (inactive)
GI50 (SK-OV-3): > 100 µM (inactive)
GI50 (SNB-19): 30.5 µM (inactive)
GI50 (U-251): 15.2 µM (inactive)
GI50 (UO-31): 28.6 µM (inactive)

CC(=O)OCc1c2ccccc2c(C)c2c1cc(F)c1ccccc12
GI50 (CCRF-CEM): 12.2 µM (inactive)
GI50 (COLO 205): 16.2 µM (inactive)
GI50 (DMS-114): 31.5 µM (inactive)
GI50 (HCT-116): 31.3 µM (inactive)
GI50 (HL-60): 23 µM (inactive)
GI50 (KM12): > 100 µM (inactive)
GI50 (LOX IMVI): 18.5 µM (inactive)
GI50 (MOLT-4): 7.74 µM (inactive)
GI50 (NCI-H226): 25.9 µM (inactive)
GI50 (NCI-H522): 12.2 µM (inactive)
GI50 (SK-MEL-28): 97.5 µM (inactive)
GI50 (SK-OV-3): 52.5 µM (inactive)
GI50 (SNB-19): 28.9 µM (inactive)
GI50 (U-251): 23.7 µM (inactive)
GI50 (UO-31): 38 µM (inactive)

CC(=O)C(CN(C(C)C)C(C)C)C(c1ccccc1)c1c(O)c2ccccc2oc1=O (stereo not drawn)
GI50 (CCRF-CEM): > 100 µM (inactive)
GI50 (COLO 205): > 100 µM (inactive)
GI50 (DMS-114): > 100 µM (inactive)
GI50 (HCT-116): > 100 µM (inactive)
GI50 (HL-60): > 100 µM (inactive)
GI50 (KM12): > 100 µM (inactive)
GI50 (LOX IMVI): > 100 µM (inactive)
GI50 (MOLT-4): > 100 µM (inactive)
GI50 (NCI-H226): > 100 µM (inactive)
GI50 (NCI-H460): > 100 µM (inactive)
GI50 (NCI-H522): > 100 µM (inactive)
GI50 (SK-MEL-28): > 100 µM (inactive)
GI50 (SK-OV-3): > 100 µM (inactive)
GI50 (SNB-19): > 100 µM (inactive)
GI50 (U-251): 56.2 µM (inactive)
GI50 (UO-31): > 100 µM (inactive)

CCOC(=O)CCC(=O)C1c2cccc(O)c2C(=O)c2c(O)cc(C)cc21 (stereo not drawn)
GI50 (CCRF-CEM): 0.519 µM (active)
GI50 (COLO 205): 2 µM (inactive)
GI50 (DMS-114): 0.296 µM (active)
GI50 (HCT-116): 0.805 µM (active)
GI50 (HL-60): 0.676 µM (active)
GI50 (KM12): 0.245 µM (active)
GI50 (LOX IMVI): 0.729 µM (active)
GI50 (MOLT-4): 2.1 µM (inactive)
GI50 (NCI-H226): 0.719 µM (active)
GI50 (NCI-H460): 0.342 µM (active)
GI50 (NCI-H522): 0.392 µM (active)
GI50 (SK-MEL-28): 1.48 µM (inactive)
GI50 (SK-OV-3): 0.865 µM (active)
GI50 (SNB-19): 0.327 µM (active)
GI50 (U-251): 0.252 µM (active)
GI50 (UO-31): 0.627 µM (active)

COC(=O)C(=O)C(CC(=O)Nc1cc(Cl)ccc1Cl)C(=O)OC (stereo not drawn)
GI50 (CCRF-CEM): > 100 µM (inactive)
GI50 (COLO 205): > 100 µM (inactive)
GI50 (DMS-114): > 100 µM (inactive)
GI50 (HCT-116): > 100 µM (inactive)
GI50 (HL-60): > 100 µM (inactive)
GI50 (KM12): > 100 µM (inactive)
GI50 (LOX IMVI): > 100 µM (inactive)
GI50 (MOLT-4): > 100 µM (inactive)
GI50 (NCI-H226): > 100 µM (inactive)
GI50 (NCI-H460): > 100 µM (inactive)
GI50 (NCI-H522): > 100 µM (inactive)
GI50 (SK-MEL-28): > 100 µM (inactive)
GI50 (SK-OV-3): > 100 µM (inactive)
GI50 (SNB-19): > 100 µM (inactive)
GI50 (U-251): > 100 µM (inactive)
GI50 (UO-31): > 100 µM (inactive)

Cc1cccc2c1c1ccc3c(c1n2C)C(=O)C=CC3=O
GI50 (CCRF-CEM): 0.468 µM (active)
GI50 (COLO 205): 2.39 µM (inactive)
GI50 (DMS-114): 6.35 µM (inactive)
GI50 (HCT-116): 5.86 µM (inactive)
GI50 (HL-60): 0.521 µM (active)
GI50 (KM12): 13.2 µM (inactive)
GI50 (LOX IMVI): 4.94 µM (inactive)
GI50 (MOLT-4): 0.536 µM (active)
GI50 (NCI-H226): 17.3 µM (inactive)
GI50 (NCI-H460): 17.3 µM (inactive)
GI50 (NCI-H522): 1.51 µM (inactive)
GI50 (SK-MEL-28): 9.71 µM (inactive)
GI50 (SK-OV-3): 20.1 µM (inactive)
GI50 (SNB-19): 16.7 µM (inactive)
GI50 (U-251): 10.3 µM (inactive)
GI50 (UO-31): 3.4 µM (inactive)

C=C(c1ccccc1)[C@@]1(O)CCCC[C@H]1NC(c1ccccc1)c1ccccc1
GI50 (CCRF-CEM): 4.34 µM (inactive)
GI50 (COLO 205): 14.2 µM (inactive)
GI50 (DMS-114): 9.64 µM (inactive)
GI50 (HCT-116): 7.93 µM (inactive)
GI50 (HL-60): 2.65 µM (inactive)
GI50 (KM12): 11.1 µM (inactive)
GI50 (LOX IMVI): 9.84 µM (inactive)
GI50 (MOLT-4): 2.73 µM (inactive)
GI50 (NCI-H226): 6.97 µM (inactive)
GI50 (NCI-H460): 13 µM (inactive)
GI50 (NCI-H522): 8.85 µM (inactive)
GI50 (SK-MEL-28): 15.5 µM (inactive)
GI50 (SK-OV-3): 19.1 µM (inactive)
GI50 (SNB-19): 15.7 µM (inactive)
GI50 (U-251): 10.7 µM (inactive)
GI50 (UO-31): 14.5 µM (inactive)

Cc1ccc(/C=N\NC2c3cc(Cl)ccc3Nc3nc(O)nc(C)c32)cc1 (stereo not drawn)
GI50 (CCRF-CEM): 96.6 µM (inactive)
GI50 (COLO 205): 58.1 µM (inactive)
GI50 (DMS-114): > 100 µM (inactive)
GI50 (HCT-116): 46.8 µM (inactive)
GI50 (HL-60): 43.3 µM (inactive)
GI50 (KM12): > 100 µM (inactive)
GI50 (LOX IMVI): > 100 µM (inactive)
GI50 (MOLT-4): 4.92 µM (inactive)
GI50 (NCI-H226): > 100 µM (inactive)
GI50 (NCI-H460): > 100 µM (inactive)
GI50 (NCI-H522): > 100 µM (inactive)
GI50 (SK-MEL-28): > 100 µM (inactive)
GI50 (SK-OV-3): > 100 µM (inactive)
GI50 (SNB-19): > 100 µM (inactive)
GI50 (U-251): > 100 µM (inactive)
GI50 (UO-31): > 100 µM (inactive)

COc1cc(/C=C2\[C@@H]3NC(Cc4c(OC)c(C)c(OC)c(OC)c43)C(=O)N2Cc2ccccc2)c(OC)c(C)c1OC
GI50 (CCRF-CEM): 30.8 µM (inactive)
GI50 (COLO 205): 15 µM (inactive)
GI50 (DMS-114): 29.8 µM (inactive)
GI50 (HCT-116): 37.5 µM (inactive)
GI50 (HL-60): 24.6 µM (inactive)
GI50 (KM12): 56.1 µM (inactive)
GI50 (LOX IMVI): 42.7 µM (inactive)
GI50 (MOLT-4): 27.5 µM (inactive)
GI50 (NCI-H226): 36.7 µM (inactive)
GI50 (NCI-H460): 21.6 µM (inactive)
GI50 (NCI-H522): 18.4 µM (inactive)
GI50 (SK-MEL-28): 60.7 µM (inactive)
GI50 (SK-OV-3): 26.2 µM (inactive)
GI50 (SNB-19): 80.5 µM (inactive)
GI50 (U-251): 35.2 µM (inactive)
GI50 (UO-31): 27 µM (inactive)

Cc1ccc(N2C(=O)/C(=C3\Sc4c(nc(C)n(C)c4=O)N3c3ccccc3)SC2=S)cc1
GI50 (CCRF-CEM): > 100 µM (inactive)
GI50 (COLO 205): > 100 µM (inactive)
GI50 (DMS-114): 35.6 µM (inactive)
GI50 (HCT-116): 64.7 µM (inactive)
GI50 (HL-60): > 100 µM (inactive)
GI50 (KM12): > 100 µM (inactive)
GI50 (LOX IMVI): > 100 µM (inactive)
GI50 (MOLT-4): > 100 µM (inactive)
GI50 (NCI-H226): 26 µM (inactive)
GI50 (NCI-H460): 19.1 µM (inactive)
GI50 (NCI-H522): > 100 µM (inactive)
GI50 (SK-MEL-28): 41.1 µM (inactive)
GI50 (SK-OV-3): 54.8 µM (inactive)
GI50 (SNB-19): 49.4 µM (inactive)
GI50 (U-251): 42.7 µM (inactive)
GI50 (UO-31): > 100 µM (inactive)

Nc1ccc(C(=O)NN2C(=O)C(Cl)C2c2ccc(O)cc2)cc1 (stereo not drawn)
GI50 (CCRF-CEM): 12.3 µM (inactive)
GI50 (COLO 205): 18.8 µM (inactive)
GI50 (DMS-114): 13 µM (inactive)
GI50 (HCT-116): 19.2 µM (inactive)
GI50 (HL-60): 15.6 µM (inactive)
GI50 (KM12): 21.8 µM (inactive)
GI50 (LOX IMVI): 9.27 µM (inactive)
GI50 (MOLT-4): 16.1 µM (inactive)
GI50 (NCI-H226): 25.4 µM (inactive)
GI50 (NCI-H460): 19.3 µM (inactive)
GI50 (NCI-H522): 11.6 µM (inactive)
GI50 (SK-MEL-28): 22.1 µM (inactive)
GI50 (SK-OV-3): 22.8 µM (inactive)
GI50 (SNB-19): 16 µM (inactive)
GI50 (U-251): 16.1 µM (inactive)
GI50 (UO-31): 23.3 µM (inactive)

CC(=O)N1CCN(c2ccc(OCC3COC(Cn4ccnc4)(c4ccc(Cl)cc4Cl)O3)cc2)CC1 (stereo not drawn) [KETOCONAZOLE]
GI50 (CCRF-CEM): 27.6 µM (inactive)
GI50 (COLO 205): 20.1 µM (inactive)
GI50 (DMS-114): 16 µM (inactive)
GI50 (HCT-116): 22.3 µM (inactive)
GI50 (HL-60): 20.1 µM (inactive)
GI50 (KM12): 30.6 µM (inactive)
GI50 (LOX IMVI): 16.9 µM (inactive)
GI50 (MOLT-4): 22.5 µM (inactive)
GI50 (NCI-H226): 18.7 µM (inactive)
GI50 (NCI-H460): 32.5 µM (inactive)
GI50 (NCI-H522): 25.6 µM (inactive)
GI50 (SK-MEL-28): 34.6 µM (inactive)
GI50 (SK-OV-3): 55.8 µM (inactive)
GI50 (UO-31): 25.8 µM (inactive)
